This is an account of results in PMC3565340, “Crystal Structure of Dimeric Flavodoxin from Desulfovibrio gigas Suggests a Potential Binding Region for the Electron-Transferring Partner” (International Journal of Molecular Sciences, 2013).

In the experiment the target is T1, Fld (flavodoxin from Desulfovibrio gigas) (Megalodesulfovibrio gigas, UniProt Q01095).
T1 construct: native, purified from anaerobically grown D. gigas cells; untagged; 146 residues, 15 kDa; residues 2-146 modelled; homodimer
The experiment can be described thus: X-ray crystal structure of the complex, […] Å. It counts as binding. The following applies: non-covalently bound native cofactor, co-purified; crystals at pH 6.5 (bis-Tris, PEG550, CaCl2); semiquinone-like state.

T1 sequence (Q01095 whole entry, the tested form may be a part): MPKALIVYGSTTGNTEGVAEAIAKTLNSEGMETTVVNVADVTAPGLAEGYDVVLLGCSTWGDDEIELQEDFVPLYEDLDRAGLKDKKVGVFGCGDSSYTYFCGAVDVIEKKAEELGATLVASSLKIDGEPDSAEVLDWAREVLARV

In the case of `Cc1cc2nc3c(=O)[nH]c(=O)nc-3n(C[C@H](O)[C@H](O)[C@H](O)COP(=O)(O)O)c2cc1C` [FMN, flavin mononucleotide], the “X-ray crystal structure of the complex, 1.3 Å” value is “the position of FMN was well defined by the electron density”.
